What follows are molecules tested against benzodiazepine modulatory unit of the GABAA receptor complex (3H-flunitrazepam binding, cerebral cortex membranes) (assay: In vitro inhibition of 3H-flunitrazepam (3H-FNM) binding). Settings: inhibition of specific 3H-FNM (1 nM) binding, cerebral cortex membranes from male Wistar rats, 40 min at 2° C.
Design: species or system rat
Experimental: In Vitro Inhibition of ^3H-Flunitrazepam (^3H-FNM) Binding
The GABA recognition site and the benzodiazepine modulatory unit can selectively be labelled with ^3H-flunitrazepam.
Preparations are performed at 0-4° C. unless otherwise indicated. Cerebral cortex from male Wistar rats (150-200 g) is homogenised for 5-10 sec in 20 ml Tris-HCl (30 mM, pH 7.4) using an Ultra-Turrax homogeniser. The suspension is centrifuged at 27,000×g for 15 min and the pellet is washed three times with buffer (centrifuged at 27,000×g for 10 min). The washed pellet is homogenized in 20 ml of buffer and incubated on a water bath (37° C.) for 30 min to remove endogenous GABA and then centrifuged for 10 min at 27,000×g. The pellet is then homogenized in buffer and centrifuged for 10 min at 27,000×g. The final pellet is resuspended in 30 ml buffer and the preparation is frozen and stored at −20° C.
The membrane preparation is thawed and centrifuged at 2° C. for 10 min at 27,000×g. The pellet is washed twice with 20 ml 50 mM Tris-citrate, pH 7.1 using an Ultra-Turrax homogeniser and centrifuged for 10 min at 27,000×g. The final pellet is resuspended in 50 mM Tris-citrate, pH 7.1 (500 ml buffer per g of original tissue), and then used for binding assays. Aliquots of 0.5 ml tissue are added to 25 μl of test solution and 25 μl of ^3H-FNM (1 nM, final concentration), mixed and incubated for 40 min at 2° C. Non-specific binding is determined using Clonazepam (1 μM, final concentration). After incubation the samples are added 5 ml of ice-cold buffer and poured directly onto Whatman GF/C glass fibre filters under suction and immediately washed with 5 ml ice-cold buffer. The amount of radioactivity on the filters is determined by conventional liquid scintillation counting. Specific binding is total binding minus non-specific binding.
The test value will be given as IC50 (the concentration (μM) of the test substance which inhibits the specific binding of ^3H-FNM by 50%).
Co is specific binding in control assays, and
Cx is the specific binding in the test assay.
(The calculations assume normal mass-action kinetics).

IC50 [µM] | Structure (SMILES)
0.038 | CC(C)(O)c1ccc2c(c1)ncn2-c1ccnc(-c2cccnc2Cl)c1 [Compound 7b, 2-[1-(2′-Chloro-[2,3′]bipyridinyl-4-yl)-1H-benzoimidazol-5-yl]-propan-2-ol]
0.026 | CC(C)(O)c1ccc2c(c1)ncn2-c1ccnc(-c2ccncc2C#N)c1 [Compound 7d, 4-[5-(1-Hydroxy-1-methyl-ethyl)-benzoimidazol-1-yl]-[2,4′]bipyridinyl-3′-carbonitrile]
0.0075 | CC(C)(O)c1ccc2c(c1)ncn2-c1ccnc(-c2ccncc2F)c1 [Compound 7c, 2-[1-(3′-Fluoro-[2,4′]bipyridinyl-4-yl)-1H-benzoimidazol-5-yl]-propan-2-ol]
0.0012 | COc1ncccc1-c1cc(-n2cnc3cc(C(C)(C)O)ccc32)ccn1 [Compound 7a, 2-[1-(2′-Methoxy-[2,3′]bipyridinyl-4-yl)-1H-benzoimidazol-5-yl]-propan-2-ol]
